Test [1] relates to Bacteria. Description: Inhibition of bacterial metallo-beta-lactamase L1 expressed in Escherichia coli […] cells at 500 uM using imipenem as substrate by UV spectrometry.
In test [2] the test system is Bacteria. Description: Competitive inhibition of bacterial NDM-1 expressed in Escherichia coli BL21 (DE3) transformed cells using imipenem as substrate after 5 mins by Lineweaver-Burk plot method.
Test [3] deals with Bacteria. Nature of the test: Uncompetitive inhibition of bacterial NDM-1 expressed in Escherichia coli BL21 (DE3) transformed cells using imipenem as substrate after 5 mins by Lineweaver-Burk plot method.
Test [4] relates to Bacteria. Nature of the test: Inhibition of bacterial NDM1 expressed in Escherichia coli BL21 (DE3) transformed cells assessed as potentiation of imipenem-induced antibacterial activity by measuring imipenem MIC after 20 hrs by broth microdilution assay (reference value: 16 ug/ml). (Broth dilution looks for growth in wells or tubes with falling amounts of substance.)
Test [5] concerns Bacteria. Description: Inhibition of bacterial ImiS expressed in Escherichia coli BL21 (DE3) transformed cells assessed as potentiation of imipenem-induced antibacterial activity by measuring imipenem MIC after 20 hrs by broth microdilution assay (reference value: 1 ug/ml).
Test [6] in a line: Inhibition of bacterial NDM1 expressed in Escherichia coli DH5R transformed cells using imipenem as substrate by UV spectrometry. The arrangement: species or system Bacteria.
For test [7], the system named is Bacteria. Nature of the test: Inhibition of bacterial ImiS expressed in Escherichia coli BL21 (DE3) transformed cells at 500 uM using imipenem as substrate by UV spectrometry.
For test [8], the system named is Escherichia coli. Nature of the test: Antibacterial activity against Escherichia coli BL21(DE3) at 16 ug/ml after 20 hrs by broth microdilution assay. The class given is functional, organism-based.

Calls of active or inactive are those of the source.

As a reminder, the MIC is the smallest concentration in the dilution series that meets the test's criterion for growth inhibition. Broadly, the IC50 is the midpoint of a concentration-inhibition curve. High values mean weaker potency in that assay, low ones greater potency in that assay. For the molecule `Nc1ccccc1-c1nnc(SCC(=O)Nc2nc3ccc([N+](=O)[O-])cc3[nH]2)[nH]1`, the inhibition result in test [1] and in test [7] was “inactive” in each case. Further, the Kic in test [2] was 550 nM. The molecule further had a Kiuc in test [3] of 310 nM. For the same molecule, the minimum inhibitory concentration (MIC) in test [4] was determined as 4 µg/mL; in test [5], 1 µg/mL. For the same molecule, 170 nM corresponded to half-maximal inhibition in test [6] (IC50). The outcome in test [8] was inactive.

(Values after ChEMBL document CHEMBL4184158, “Azolylthioacetamides as a potent scaffold for the development of metallo-β-lactamase inhibitors” (Bioorg Med Chem Lett, 2017).)
